Data on 28 compounds can be found in article PMC7529893, “Structural basis for substrate recognition and chemical inhibition of oncogenic MAGE ubiquitin ligases” (Nature Communications, 2020).

The test deals with T1, MAGE-A11:PCF11 interaction (GST-MAGE-A11 and FAM-PCF11_4) (Homo sapiens, UniProt P43364).
T1 construct: GST-MAGE-A11 MHD (human MAGE-A11 MHD amino acid 218-429); made in house; host or cells: E. coli BL21(DE3)
T1 sequence (P43364 218-429): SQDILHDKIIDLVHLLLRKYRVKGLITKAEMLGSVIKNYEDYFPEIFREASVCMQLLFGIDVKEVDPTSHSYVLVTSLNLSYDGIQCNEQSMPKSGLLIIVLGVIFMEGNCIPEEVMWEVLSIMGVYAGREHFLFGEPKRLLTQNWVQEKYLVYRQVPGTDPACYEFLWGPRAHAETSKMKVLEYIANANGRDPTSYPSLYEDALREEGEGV
The test can be described thus: TR-FRET primary / single point screen at 15 µM. Format: binding. In short, it runs like this: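 TR-FRET 520/490 nm emission ratio was read after 90 min at room temperature. Wells held 5 nM GST-MAGE-A11, 5 nM Tb-anti-GST, 200 nM FAM-PCF11_4 and 15 µM compound in Tris pH 7.5 buffer with MgCl2, BSA and DTT. %Inhibition was scaled to DMSO and minus-MAGE-A11 controls.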

Where [1] appears, read: single point TR-FRET screening of quinoline compounds against MAGE-A11:PCF11, 15 µM.
Setting [2] is: single point TR-FRET screening of 797 quinoline compounds against MAGE-A11:PCF11.

The structures appear in SMILES notation.

Take `CCCN(CCCNc1ccnc2cc(Cl)ccc12)Cc1ccc([N+](=O)[O-])o1` [SJ000523047]: the “percent inhibition (TR-FRET)” value under setting [1] stood at 9.575.
For `COc1ccc2nc3cc(Cl)ccc3c(NCCCNCC3CCCCC3)c2c1` [SJ000361090], the “percent inhibition (TR-FRET)” value under setting [2] was -411.15.
For `O=C(C[C@H]1CC[C@]2(CC1)OO[C@]1(O2)C2CC3CC(C2)CC1C3)NCCCCNc1ccnc2cc(Cl)ccc12` [SJ000578384], the “percent inhibition (TR-FRET)” value under setting [2] is 25.1182.
Same read-out and setting: in the case of `CCCN(CCCNc1c2ccc(Cl)cc2nc2ccc(OC)cc12)Cc1cccc(C)c1` [SJ000520954] it was -157.809.
As for `CCCN(CCCNc1ccnc2cc(C(F)(F)F)ccc12)Cc1cncc(Br)c1` [SJ000521007], the “percent inhibition (TR-FRET)” value under setting [1] stood at 4.323.
Still for that read-out and setting: the value for `COc1ccc(CN(CCCNc2ccnc3cc(Cl)ccc23)Cc2ccccc2)cc1OC` [SJ000522742] was -0.5383; that for `CCCN(CCCNc1ccnc2cc(C(F)(F)F)ccc12)Cc1ccccn1` [SJ000361252] was 15.1623; that for `CCCN(CCCNc1ccnc2cc(C(F)(F)F)ccc12)Cc1cc(C)ccc1C` [SJ000523082] was 21.738.
For the compound `CCN1CCN(c2c(S(=O)(=O)c3ccc(C)cc3)cnc3cc(OC)c(OC)cc23)CC1` [SJ000083965], under setting [2], the “percent inhibition (TR-FRET)” value was 7.146.
On the same count and under the same terms, the value for `Cc1ccc(C)c(CN2CCC(Nc3ccnc4cc(Cl)ccc34)CC2)c1` [SJ000523106] was 18.6767.
Consider `CCCN(CCCNc1ccnc2cc(Cl)ccc12)CCC(C)(C)C` [SJ000357570], for which the “percent inhibition (TR-FRET)” value under setting [1] amounted to 12.1149.
Same read-out and setting: the value for `CCOC(=O)c1cnc2c(OC)cccc2c1NCCCN1CCOCC1` [SJ000180455] was 3.635; that for `CCOC(=O)c1cnc2c(Cl)cc(Cl)cc2c1NCCCN1CCOCC1` [SJ000176476] was -2.118.
The same measure, in the same setting: in the case of `CCCN(CCCNc1c2ccc(Cl)cc2nc2ccc(OC)cc12)Cc1ccccc1C(F)(F)F` [SJ000520928] it was 14.1686; in that of `CCCN(CCCNc1c2ccc(Cl)cc2nc2ccc(OC)cc12)Cc1cc2ccccc2nc1Cl` [SJ000522737], -83.7446.
Same read-out and setting: in the case of `CCCN(CCCNc1c2ccc(Cl)cc2nc2ccc(OC)cc12)Cc1cccnc1Br` [SJ000522977] it was 0.2567.
With `COc1ccc2ncc(S(=O)(=O)c3ccccc3)c(N3CCN(C)CC3)c2c1` [SJ000083947], the “percent inhibition (TR-FRET)” value under setting [2] is -2.0938.
Turning to `Cc1cccc(CN(CCCNc2ccnc3cc(Cl)ccc23)Cc2ccccc2)c1` [SJ000361183], the “percent inhibition (TR-FRET)” value under setting [1] stood at 6.02.
Turning to `Cc1csc(CN(CCCCNc2ccnc3cc(Cl)ccc23)Cc2ccccc2)n1` [SJ000520456], under setting [2], the “percent inhibition (TR-FRET)” value was -12.8602.
Take `Fc1cccc(CN(CCCNc2ccnc3cc(Cl)ccc23)Cc2ccccc2)c1` [SJ000361176]: the “percent inhibition (TR-FRET)” value under setting [1] was determined as 20.3571.
Turning to `COc1ccc2nc3cc(Cl)ccc3c(NCCCNCc3cccnc3)c2c1` [SJ000520986], the “percent inhibition (TR-FRET)” value under setting [2] is given as -408.98.
As for `CN(C)CC(=O)Nc1c2c(nc3ccccc13)N(C)CC2` [SJ000332030], the “percent inhibition (TR-FRET)” value under setting [2] is listed as 17.0397.
For the compound `Clc1ccc2c(NCCCN(Cc3ccccc3)Cc3ccccc3)ccnc2c1` [SJ000361166], the “percent inhibition (TR-FRET)” value under setting [1] came out at 14.7648.
With `Clc1ccc2c(NCCCCN(Cc3ccccc3)Cc3cccc4c3OCO4)ccnc2c1` [SJ000520436], the “percent inhibition (TR-FRET)” value under setting [2] turned out to be 21.6545.
The same measure, in the same setting: the value for `COc1ccc2nc3cc(Cl)ccc3c(NCCCNCc3ccoc3)c2c1` [SJ000520916] was -299.405; that for `COc1ccccc1CN1CCC(Nc2ccnc3cc(Cl)ccc23)CC1` [SJ000523097] was 8.596.
As for `Fc1cccc(CN2CCC(Nc3ccnc4cc(Cl)ccc34)CC2)c1` [SJ000523092], the “percent inhibition (TR-FRET)” value under setting [2] was 6.622.
For the compound `Fc1ccc(CN2CCC(Nc3ccnc4cc(Cl)ccc34)CC2)cc1` [SJ000523093], the “percent inhibition (TR-FRET)” value under setting [2] turned out to be 10.6575.
